Source: the Kinase Knowledgebase extract (Sharma et al. 2016)

Assays:
[1] = target: PIK3CA (human) (UniProt P42336); test: Inhibition of PIK3CA Kinase Activity
[2] = target: PIK3CG (human) (UniProt P48736); test: Inhibition of PIK3CG Kinase Activity
[3] = target: PIK3CD (Human) (UniProt O00329); test: Inhibition of PIK3CD Kinase Activity
[4] = target: PIK3CB (Human) (UniProt P42338); test: Inhibition of PIK3CB Kinase Activity

Measured: IC50

PIK3CD (Human), sequence (O00329 whole entry, looked up): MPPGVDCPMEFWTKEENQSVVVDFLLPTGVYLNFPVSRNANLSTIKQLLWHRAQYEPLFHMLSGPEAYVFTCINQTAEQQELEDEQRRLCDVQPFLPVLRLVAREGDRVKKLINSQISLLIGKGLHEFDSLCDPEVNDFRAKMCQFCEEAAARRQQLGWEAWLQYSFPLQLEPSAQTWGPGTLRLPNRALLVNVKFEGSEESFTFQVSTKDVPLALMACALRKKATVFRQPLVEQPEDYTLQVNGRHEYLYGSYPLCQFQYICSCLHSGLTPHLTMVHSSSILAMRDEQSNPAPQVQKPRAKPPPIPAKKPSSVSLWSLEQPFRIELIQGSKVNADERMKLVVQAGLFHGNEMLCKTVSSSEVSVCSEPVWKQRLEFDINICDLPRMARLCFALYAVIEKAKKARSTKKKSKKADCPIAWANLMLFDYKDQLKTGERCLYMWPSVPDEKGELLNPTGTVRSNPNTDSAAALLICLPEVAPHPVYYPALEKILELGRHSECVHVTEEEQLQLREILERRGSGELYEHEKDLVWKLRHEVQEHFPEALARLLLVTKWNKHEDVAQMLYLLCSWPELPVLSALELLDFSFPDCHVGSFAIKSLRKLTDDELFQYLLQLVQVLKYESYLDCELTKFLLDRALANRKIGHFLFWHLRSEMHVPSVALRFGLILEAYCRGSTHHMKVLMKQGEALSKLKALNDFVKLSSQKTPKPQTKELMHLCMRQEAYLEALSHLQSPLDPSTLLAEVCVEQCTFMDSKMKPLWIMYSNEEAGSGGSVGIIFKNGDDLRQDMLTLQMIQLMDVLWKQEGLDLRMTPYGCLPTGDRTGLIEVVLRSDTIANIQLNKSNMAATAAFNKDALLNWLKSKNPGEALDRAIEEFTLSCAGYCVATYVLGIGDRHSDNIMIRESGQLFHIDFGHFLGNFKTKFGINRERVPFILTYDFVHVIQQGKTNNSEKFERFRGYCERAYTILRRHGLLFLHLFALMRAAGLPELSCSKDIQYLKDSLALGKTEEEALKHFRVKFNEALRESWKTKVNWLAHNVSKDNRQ
PIK3CB (Human), sequence (P42338 whole entry, looked up): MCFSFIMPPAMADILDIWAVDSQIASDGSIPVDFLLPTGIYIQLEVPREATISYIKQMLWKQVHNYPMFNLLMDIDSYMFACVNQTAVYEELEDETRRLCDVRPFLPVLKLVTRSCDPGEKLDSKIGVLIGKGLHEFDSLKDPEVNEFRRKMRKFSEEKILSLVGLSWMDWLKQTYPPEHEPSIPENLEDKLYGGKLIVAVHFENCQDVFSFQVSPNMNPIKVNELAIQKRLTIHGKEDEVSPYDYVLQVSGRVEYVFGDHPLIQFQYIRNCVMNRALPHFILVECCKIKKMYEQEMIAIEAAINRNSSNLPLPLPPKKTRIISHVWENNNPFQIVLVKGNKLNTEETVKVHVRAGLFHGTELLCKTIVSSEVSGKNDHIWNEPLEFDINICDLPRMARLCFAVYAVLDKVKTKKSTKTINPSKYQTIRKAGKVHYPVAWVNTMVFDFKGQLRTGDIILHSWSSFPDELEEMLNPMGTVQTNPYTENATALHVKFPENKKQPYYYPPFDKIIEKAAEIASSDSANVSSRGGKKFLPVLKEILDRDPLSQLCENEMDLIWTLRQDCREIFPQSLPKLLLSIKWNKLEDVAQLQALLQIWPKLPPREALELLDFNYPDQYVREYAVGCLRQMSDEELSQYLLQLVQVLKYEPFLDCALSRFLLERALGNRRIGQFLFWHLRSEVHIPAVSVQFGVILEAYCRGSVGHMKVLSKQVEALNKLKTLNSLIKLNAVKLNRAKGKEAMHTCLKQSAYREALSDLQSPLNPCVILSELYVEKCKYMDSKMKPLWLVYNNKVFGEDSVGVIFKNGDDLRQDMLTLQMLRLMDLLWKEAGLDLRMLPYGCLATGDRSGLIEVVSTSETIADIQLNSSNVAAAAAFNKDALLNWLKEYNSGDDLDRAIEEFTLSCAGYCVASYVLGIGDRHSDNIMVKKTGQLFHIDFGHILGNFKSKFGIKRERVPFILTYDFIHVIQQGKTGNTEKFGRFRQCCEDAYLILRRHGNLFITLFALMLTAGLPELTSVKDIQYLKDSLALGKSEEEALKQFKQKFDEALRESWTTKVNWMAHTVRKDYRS
PIK3CG (human), sequence (P48736 whole entry, looked up): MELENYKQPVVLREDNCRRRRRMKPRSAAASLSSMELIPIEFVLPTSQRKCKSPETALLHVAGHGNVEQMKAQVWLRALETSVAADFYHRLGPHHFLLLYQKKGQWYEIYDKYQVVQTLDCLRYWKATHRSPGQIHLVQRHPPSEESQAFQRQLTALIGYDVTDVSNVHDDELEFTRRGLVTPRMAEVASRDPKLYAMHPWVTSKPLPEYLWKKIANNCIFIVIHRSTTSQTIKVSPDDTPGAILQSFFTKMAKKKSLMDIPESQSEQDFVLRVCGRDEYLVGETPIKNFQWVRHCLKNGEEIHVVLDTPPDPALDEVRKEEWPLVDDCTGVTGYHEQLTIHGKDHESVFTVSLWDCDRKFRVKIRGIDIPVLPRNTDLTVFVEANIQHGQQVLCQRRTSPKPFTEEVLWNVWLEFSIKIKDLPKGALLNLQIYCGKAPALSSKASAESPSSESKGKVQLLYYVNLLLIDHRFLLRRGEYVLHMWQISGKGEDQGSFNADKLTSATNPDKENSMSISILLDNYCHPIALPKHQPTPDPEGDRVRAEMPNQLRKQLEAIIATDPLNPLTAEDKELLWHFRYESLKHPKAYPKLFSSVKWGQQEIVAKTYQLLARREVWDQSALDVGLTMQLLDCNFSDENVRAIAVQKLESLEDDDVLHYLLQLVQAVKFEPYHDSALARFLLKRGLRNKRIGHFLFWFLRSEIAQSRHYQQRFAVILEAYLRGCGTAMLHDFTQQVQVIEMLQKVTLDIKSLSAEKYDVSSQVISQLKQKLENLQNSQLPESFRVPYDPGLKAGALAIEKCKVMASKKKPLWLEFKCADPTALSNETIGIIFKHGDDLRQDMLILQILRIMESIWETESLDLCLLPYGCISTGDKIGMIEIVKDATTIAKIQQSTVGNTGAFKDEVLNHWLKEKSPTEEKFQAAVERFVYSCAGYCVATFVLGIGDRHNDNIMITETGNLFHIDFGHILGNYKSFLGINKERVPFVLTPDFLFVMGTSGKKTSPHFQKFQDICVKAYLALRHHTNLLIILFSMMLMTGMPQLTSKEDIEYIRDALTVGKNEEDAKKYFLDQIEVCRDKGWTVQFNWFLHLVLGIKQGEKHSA
PIK3CA (human), sequence (P42336 whole entry, looked up): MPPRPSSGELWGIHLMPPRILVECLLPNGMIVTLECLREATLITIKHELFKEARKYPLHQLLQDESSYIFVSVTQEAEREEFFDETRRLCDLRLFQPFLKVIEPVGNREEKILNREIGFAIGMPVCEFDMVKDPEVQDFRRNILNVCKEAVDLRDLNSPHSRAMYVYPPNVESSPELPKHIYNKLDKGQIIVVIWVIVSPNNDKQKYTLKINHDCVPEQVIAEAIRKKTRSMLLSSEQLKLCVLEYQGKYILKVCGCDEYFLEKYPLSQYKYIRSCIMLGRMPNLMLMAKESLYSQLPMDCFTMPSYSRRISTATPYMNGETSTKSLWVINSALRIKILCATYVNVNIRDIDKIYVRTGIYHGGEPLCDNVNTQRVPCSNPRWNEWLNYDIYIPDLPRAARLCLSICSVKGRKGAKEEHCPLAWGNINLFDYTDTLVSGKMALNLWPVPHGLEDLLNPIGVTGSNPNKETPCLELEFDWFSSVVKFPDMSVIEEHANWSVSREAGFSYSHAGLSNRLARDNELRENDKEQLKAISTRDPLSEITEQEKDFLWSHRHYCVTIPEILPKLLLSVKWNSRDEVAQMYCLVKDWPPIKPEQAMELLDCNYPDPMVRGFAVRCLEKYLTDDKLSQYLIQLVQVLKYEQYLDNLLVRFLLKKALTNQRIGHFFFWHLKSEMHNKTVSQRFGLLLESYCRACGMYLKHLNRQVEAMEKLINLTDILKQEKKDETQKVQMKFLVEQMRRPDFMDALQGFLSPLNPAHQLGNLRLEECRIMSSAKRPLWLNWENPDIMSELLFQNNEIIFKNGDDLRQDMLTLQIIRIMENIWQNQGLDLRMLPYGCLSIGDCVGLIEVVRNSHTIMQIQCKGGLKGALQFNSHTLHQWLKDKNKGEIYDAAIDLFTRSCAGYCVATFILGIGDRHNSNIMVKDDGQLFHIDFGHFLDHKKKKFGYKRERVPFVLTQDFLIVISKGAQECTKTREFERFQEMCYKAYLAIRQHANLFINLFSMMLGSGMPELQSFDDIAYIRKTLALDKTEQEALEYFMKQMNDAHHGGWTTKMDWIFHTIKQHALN

CC1(C)CC(=O)c2sc(N3CCOCC3Cc3cccc(Br)n3)nc2C1 (stereo not drawn)
≤ 50 µM: all assays above

CC1(C)CC(=S)c2sc(N3CCOCC3Cc3csc4ccccc34)nc2C1 (stereo not drawn)
≤ 50 µM: all assays above

Cc1csc(-c2cccc(C[C@H]3COCCN3c3nc4c(s3)C(=O)CC(C)(C)C4)c2)c1
≤ 50 µM: all assays above

CC1(C)CC(=O)c2sc(N3CCOC[C@@H]3Cc3cccc(-c4ccc(C(N)=O)cc4)c3)nc2C1
≤ 50 µM: all assays above

O=C1CC(c2ccccc2)Cc2nc(N3CCOCC3)sc21 (stereo not drawn)
≤ 50 µM: all assays above

Cc1ccc(-c2cccc(C[C@H]3COCCN3c3nc4c(s3)C(=O)CC(C)(C)C4)c2)cc1
≤ 50 µM: all assays above

CCOc1cccc(-c2cccc(C[C@H]3COCCN3c3nc4c(s3)C(=O)CC(C)(C)C4)c2)c1
≤ 50 µM: all assays above

CC(C)C1CC(=O)c2sc(N3CCOCC3)nc2C1 (stereo not drawn)
≤ 50 µM: all assays above

CC1(C)CNC(=O)c2sc(N3CCOC[C@@H]3Cc3cccc(-c4ccccc4)c3)nc2C1
≤ 50 µM: all assays above

CC1(C)CC(=S)c2sc(N3CCOCC3)nc2C1
≤ 50 µM: all assays above

CC1(C)CC(=O)c2sc(N3CCOC(c4ccccc4)C3)nc2C1 (stereo not drawn)
≤ 50 µM: all assays above

CC1(C)CC(=O)c2sc(N3CCOCC3Cc3cccc(-c4ccccc4)n3)nc2C1 (stereo not drawn)
≤ 50 µM: all assays above

CC1(C)CC(=O)c2sc(N3CCOCC3Cc3cccc4ccccc34)nc2C1 (stereo not drawn)
≤ 50 µM: all assays above

CC1(C)CC(=O)c2sc(N3CCOC[C@@H]3Cc3cccc(-c4cccc(F)c4)c3)nc2C1
≤ 50 µM: all assays above

CC1(C)CC(=O)c2sc(N3CCOC[C@@H]3Cc3cccc(-c4cccc(C(F)(F)F)c4)c3)nc2C1
≤ 50 µM: all assays above

CC1(C)CC(=O)c2sc(N3CCOCC3C(=O)N3CCNc4ccccc43)nc2C1 (stereo not drawn)
≤ 50 µM: all assays above

CC1(C)CC(=O)c2sc(N3CCOC[C@@H]3Cc3cccc(-c4ccccc4Cl)c3)nc2C1
≤ 50 µM: all assays above

O=C1NCCCc2nc(N3CCOCC3)sc21
≤ 50 µM: all assays above

O=C1CCCc2nc(N3CCOCC3Cc3cc4ccccc4s3)sc21 (stereo not drawn)
≤ 50 µM: all assays above

CC1(C)CC(=O)c2sc(N3CCOC[C@@H]3Cn3cnc4ccccc43)nc2C1
≤ 50 µM: all assays above

CC1(C)CC(=O)c2sc(N3CCOC[C@@H]3Cc3cccc(-c4c(F)cccc4F)c3)nc2C1
≤ 50 µM: all assays above

CC1(C)CC(=O)c2sc(N3CCOC[C@@H]3Cc3cccc(-c4ccncc4F)c3)nc2C1
≤ 50 µM: all assays above

Cn1cc(CC2COCCN2c2nc3c(s2)C(=O)CC(C)(C)C3)c2ccccc21 (stereo not drawn)
≤ 50 µM: all assays above

CC1(C)CC(=O)c2sc(N3CCOC[C@@H]3Cc3cccc(-c4cncnc4)c3)nc2C1
≤ 50 µM: all assays above

CC1(C)CC(=O)c2sc(N3CCOCC3Cc3cccc4cccnc34)nc2C1 (stereo not drawn)
≤ 50 µM: all assays above

CC1(C)CC(=O)c2sc(N3CCOCC3Cc3ccc(-c4cccnc4)cc3)nc2C1 (stereo not drawn)
≤ 50 µM: all assays above

CC1(C)CC(=NO)c2sc(N3CCOCC3)nc2C1
≤ 50 µM: all assays above

Cc1cccc(-c2cccc(C[C@H]3COCCN3c3nc4c(s3)C(=O)CC(C)(C)C4)c2)c1C
≤ 50 µM: all assays above

CC1(C)CC(=O)c2sc(N3CCOC[C@@H]3Cc3cccc(-c4ccc(Cl)nc4)c3)nc2C1
≤ 50 µM: all assays above

CC1(C)CC(=NO)c2sc(N3CCOC[C@@H]3Cc3c[nH]c4ccccc34)nc2C1
≤ 50 µM: all assays above

COc1ccc(-c2cccc(C[C@H]3COCCN3c3nc4c(s3)C(=O)CC(C)(C)C4)c2)cc1OC
≤ 50 µM: all assays above

CC1(C)CC(=O)c2sc(nc2C1)N3CCOCC3C(=O)N4=CCCc5ccccc45
≤ 50 µM: all assays above

CC1(C)CNC(=O)c2sc(N3CCOC[C@@H]3Cc3cccc(-c4cccnc4)c3)nc2C1
≤ 50 µM: all assays above

CC1(C)CC(=O)c2sc(N3CCOC[C@@H]3Cc3cccc(-c4ccc(F)c(F)c4)c3)nc2C1
≤ 50 µM: all assays above

CC1(C)CC(=O)c2sc(N3CCOC[C@@H]3Cc3cccc(-c4cccc5ccccc45)c3)nc2C1
≤ 50 µM: all assays above

CC1(C)CC(=O)c2sc(N3CCOC[C@@H]3Cc3cccc(Br)c3)nc2C1
≤ 50 µM: all assays above

CC1(C)CNC(=S)c2sc(N3CCOC[C@@H]3Cc3c[nH]c4ccccc34)nc2C1
≤ 50 µM: all assays above

CC1CC(=O)c2sc(N3CCOCC3)nc2C1 (stereo not drawn)
≤ 50 µM: all assays above

CC1(C)CNC(=O)c2sc(N3CCOC[C@@H]3Cc3cccc(Br)c3)nc2C1
≤ 50 µM: all assays above

CSc1ccc(-c2cccc(C[C@H]3COCCN3c3nc4c(s3)C(=O)CC(C)(C)C4)c2)cc1
≤ 50 µM: all assays above

CC1(C)CC(=O)c2sc(N3CCOC[C@@H]3Cc3cccc(N4CCCC4)c3)nc2C1
≤ 50 µM: all assays above

CC(=O)c1ccc(-c2cccc(C[C@H]3COCCN3c3nc4c(s3)C(=O)CC(C)(C)C4)c2)s1
≤ 50 µM: all assays above
